From patent US10323036B2 (Nimbus Lakshmi, Inc., priority 2016, dated 2019)
Read-outs that look alike come from different tables or passages of the source. Blank lines part the entries; values can stand above or below the compound they belong to.

Legend:
[1] = molecular target: human TYK2 (JH2domain-pseudokinase) (Homo sapiens (Human), UniProt P29597); test: TYK2 JH2 Domain Binding Assay (KINOMEscan); conditions: read-out: JH2 Kd
GM-CSF induced pSTAT5 = test: GM-CSF Induced pSTAT5 in Human PBMC; assay type: cell-based; conditions: 5 ng/mL GM-CSF, read-out: IC50 of inhibition of pSTAT5 production
Experimental: Cells are prepared for analysis as in the above procedure and 15 μl of GM-CSF (final concentration 5 ng/mL) is added for 20 minutes prior to pSTAT5 and total STAT5 analysis using cell lysates prepared and analyzed by MSD reagents as per manufacturer protocol. The final DMSO concentration of compound in the assay is 0.1%.

TYK2 JH1 kinase = TYK2 JH1 kinase (Homo sapiens (Human), UniProt P29597); test: Tyk2 Radioactive Kinase Assay; assay type: biochemical; conditions: ATP at 10 μM
TYK2 JH1 kinase, sequence (P29597 833-1187): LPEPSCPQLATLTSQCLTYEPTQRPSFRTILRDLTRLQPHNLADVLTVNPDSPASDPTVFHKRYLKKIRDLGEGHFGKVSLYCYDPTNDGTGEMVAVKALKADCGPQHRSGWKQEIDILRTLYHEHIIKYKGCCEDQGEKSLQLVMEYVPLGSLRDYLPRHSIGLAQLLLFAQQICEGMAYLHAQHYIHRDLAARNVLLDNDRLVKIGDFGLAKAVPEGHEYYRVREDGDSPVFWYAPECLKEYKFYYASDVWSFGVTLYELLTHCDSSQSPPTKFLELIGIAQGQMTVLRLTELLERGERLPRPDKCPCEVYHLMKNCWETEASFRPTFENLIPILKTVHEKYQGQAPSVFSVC
Experimental: (§1) Peptide substrate, [KKSRGDYMTMQIG (SEQ ID NO: 2)], (20 μM) is prepared in reaction buffer (20 mM Hepes pH 7.5, 10 mM MgCl2, 1 mM EGTA, 0.02% Brij35, 0.02 mg/mL BSA, […], 2 mM DTT, 1% DMSO. TYK2 (Invitrogen) kinase is added, followed by compounds in DMSO. 33PATP is added to initiate the reaction in ATP at 10 μM. Kinase reaction is incubated for 120 min at room temp and reactions are spotted onto P81 ion exchange paper (Whatman #3698-915), and then washed extensively in 0.75% phosphoric acid, prior to reading the radioactivity counts. For JAK2 (Invitrogen) kinase assay the peptide substrate poly[Glu:Tyr] (4:1), 0.2 mg/ml is used, in the reaction carried out the same as for TYK2.

JAK2 JH1 kinase = JAK2 JH1 kinase (Homo sapiens (Human), UniProt O60674); test: JAK2 Radioactive Kinase Assay; assay type: biochemical; conditions: ATP at 10 μM
JAK2 JH1 kinase, sequence (O60674 808-1132): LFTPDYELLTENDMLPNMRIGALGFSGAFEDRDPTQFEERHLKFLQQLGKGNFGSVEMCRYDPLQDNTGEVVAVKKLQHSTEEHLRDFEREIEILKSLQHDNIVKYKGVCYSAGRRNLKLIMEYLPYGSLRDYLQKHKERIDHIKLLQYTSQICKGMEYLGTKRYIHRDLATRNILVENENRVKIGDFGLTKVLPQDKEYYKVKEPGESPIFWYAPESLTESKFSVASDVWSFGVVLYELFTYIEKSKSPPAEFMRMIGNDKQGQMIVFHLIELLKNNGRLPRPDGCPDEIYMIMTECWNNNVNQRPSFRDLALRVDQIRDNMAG
Experimental: as §1

[2] = Table 5, Tyk2 JH2 Domain Binding Assay

human TYK2 (JH2domain-pseudokinase), sequence (P29597 556-888): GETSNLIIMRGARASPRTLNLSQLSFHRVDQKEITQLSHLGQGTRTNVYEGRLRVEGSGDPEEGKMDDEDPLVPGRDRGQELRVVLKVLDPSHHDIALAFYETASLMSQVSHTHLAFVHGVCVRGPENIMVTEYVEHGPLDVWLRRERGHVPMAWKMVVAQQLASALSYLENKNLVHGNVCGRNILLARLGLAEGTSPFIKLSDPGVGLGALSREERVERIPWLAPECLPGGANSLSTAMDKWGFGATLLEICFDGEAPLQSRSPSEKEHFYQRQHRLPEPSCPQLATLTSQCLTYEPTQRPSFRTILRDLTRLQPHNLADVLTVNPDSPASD

Compound: COc1c(Nc2cc(NC(=O)C3CC3)ncc2-c2ncc(Cl)s2)cccc1-c1nnn(C)n1 [VIII-1, N-(5-(5-chlorothiazol-2-yl)-4-((2-methoxy-3-(2-methyl-2H-tetrazol-5-yl)phenyl)amino)pyridin-2-yl)cyclopropanecarboxamide]
Kd [1, 2]: 1 to 10 nM | IC50 (GM-CSF induced pSTAT5): > 50000 nM

Compound: COCc1ccnc(Nc2cc(Nc3cccc(-c4nnn(C)n4)c3OC)c3c(=O)n(C)[nH]c3n2)c1 [Compound I-2, 4-((2-methoxy-3-(2-methyl-2H-tetrazol-5-yl)phenyl)amino)-6-((4-(methoxymethyl)pyridin-2-yl)amino)-2-methyl-1,2-dihydro-3H-pyrazolo[3,4-b]pyridin-3-one]
Kd ([1]; Table 4, JH2 binding assay): 0.1 to 0.5 nM | inhibitory activity against TYK2 JH1 kinase function (TYK2 JH1 kinase): no detectable inhibitory activity

Compound: COc1c(Nc2cc(NC(=O)C3CC3)ncc2-c2nnc(C(F)(F)F)o2)cccc1-c1ncn(C)n1 [VIII-3, N-(4-((2-methoxy-3-(1-methyl-1H-1,2,4-triazol-3-yl)phenyl)amino)-5-(5-(trifluoromethyl)-1,3,4-oxadiazol-2-yl)pyridin-2-yl)cyclopropanecarboxamide]
Kd [1, 2]: > 100 nM | inhibitory activity against TYK2 JH1 kinase function (TYK2 JH1 kinase): no detectable inhibitory activity | inhibitory activity against JAK2 JH1 kinase function (JAK2 JH1 kinase): no detectable inhibitory activity

Compound: COc1c(Nc2cc(NC(=O)C3CC3)nc3[nH]n(C)c(=O)c23)cccc1-c1nnn(C)n1 [Compound I-1]
Kd ([1]; Table 4, JH2 binding assay): < 0.1 nM | inhibitory activity against TYK2 JH1 kinase function (TYK2 JH1 kinase): no detectable inhibitory activity

Compound: COc1c(Nc2cc(NC(=O)C3CC3)nc3[nH]n(C)c(=O)c23)cccc1-c1n[nH]c(C)n1 [Compound I-62]
Kd ([1]; Table 4, JH2 binding assay): < 0.1 nM

Compound: COc1c(Nc2cc(Nc3cc(C)ccn3)nc3[nH]n(C)c(=O)c23)cccc1-c1nnn(C)n1 [Compound I-5, 4-((2-methoxy-3-(2-methyl-2H-tetrazol-5-yl)phenyl)amino)-2-methyl-6-((4-methylpyridin-2-yl)amino)-1,2-dihydro-3H-pyrazolo[3,4-b]pyridin-3-one]
Kd ([1]; Table 4, JH2 binding assay): > 10 nM

Compound: COc1c(Nc2cc(Nc3ccccn3)nc3[nH]n(C)c(=O)c23)cccc1-c1ncn(C)n1 [Compound I-17, 4-((2-methoxy-3-(1-methyl-1H-1,2,4-triazol-3-yl)phenyl)amino)-2-methyl-6-(pyridin-2-ylamino)-1,2-dihydro-3H-pyrazolo[3,4-b]pyridin-3-one]
Kd ([1]; Table 4, JH2 binding assay): < 0.1 nM

Compound: COc1c(Nc2cc(Nc3ccc(C)cn3)nc3[nH]n(C)c(=O)c23)cccc1-c1nnn(C)n1 [Compound I-3, 4-((2-methoxy-3-(2-methyl-2H-tetrazol-5-yl)phenyl)amino)-2-methyl-6-((5-methylpyridin-2-yl)amino)-1,2-dihydro-3H-pyrazolo[3,4-b]pyridin-3-one]
Kd ([1]; Table 4, JH2 binding assay): 0.1 to 0.5 nM

Compound: COc1c(Nc2cc(Nc3cccc(C(F)(F)F)n3)nc3[nH]n(C)c(=O)c23)cccc1-c1nnn(C)n1 [Compound I-60, 4-((2-methoxy-3-(2-methyl-2H-tetrazol-5-yl)phenyl)amino)-2-methyl-6-((6-(trifluoromethyl)pyridin-2-yl)amino)-1,2-dihydro-3H-pyrazolo[3,4-b]pyridin-3-one]
Kd ([1]; Table 4, JH2 binding assay): 0.1 to 0.5 nM

Compound: Cn1[nH]c2nc(Nc3cccc(C#N)n3)cc(Nc3ccccc3S(C)(=O)=O)c2c1=O [Compound I-112, 6-((2-methyl-4-((2-(methylsulfonyl)phenyl)amino)-3-oxo-2,3-dihydro-1H-pyrazolo[3,4-b]pyridin-6-yl)amino)picolinonitrile]
Kd ([1]; Table 4, JH2 binding assay): < 0.1 nM

Compound: COc1c(Nc2cc(Nc3cc(C#N)ccn3)nc3[nH]n(C)c(=O)c23)cccc1-c1nnn(C)n1 [Compound I-32, 2-((4-((2-methoxy-3-(2-methyl-2H-tetrazol-5-yl)phenyl)amino)-2-methyl-3-oxo-2,3-dihydro-1H-pyrazolo[3,4-b]pyridin-6-yl)amino)isonicotinonitrile]
Kd ([1]; Table 4, JH2 binding assay): > 10 nM

Compound: CN(c1cc(Cl)ccc1Nc1cc(NC(=O)C2CC2)nc2[nH]n(C)c(=O)c12)S(C)(=O)=O [Compound I-228, N-(4-((4-chloro-2-(N-methylmethylsulfonamido)phenyl)amino)-2-methyl-3-oxo-2,3-dihydro-1H-pyrazolo[3,4-b]pyridin-6-yl)cyclopropanecarboxamide]
Kd ([1]; Table 4, JH2 binding assay): 0.1 to 0.5 nM

Compound: CCNC(=O)c1ccc(Nc2cc(NC(=O)C3CC3)nc3[nH]n(C)c(=O)c23)c(OC)c1 [Compound I-114, 4-((6-(cyclopropanecarboxamido)-2-methyl-3-oxo-2,3-dihydro-1H-pyrazolo[3,4-b]pyridin-4-yl)amino)-N-ethyl-3-methoxybenzamide]
Kd ([1]; Table 4, JH2 binding assay): 1 to 10 nM

Compound: COc1c(C#N)cccc1Nc1cc(Nc2cc(C)nc(C)n2)nc2[nH]n(C)c(=O)c12 [Compound I-39]
Kd ([1]; Table 4, JH2 binding assay): > 10 nM

Compound: COC1CN(c2ccc(Nc3cc(NC(=O)C4CC4)nc4[nH]n(C)c(=O)c34)c(N(C)S(C)(=O)=O)c2)C1 [Compound I-220, N-(4-((4-(3-methoxyazetidin-1-yl)-2-(N-methylmethylsulfonamido)phenyl)amino)-2-methyl-3-oxo-2,3-dihydro-1H-pyrazolo[3,4-b]pyridin-6-yl)cyclopropane-carboxamide]
Kd ([1]; Table 4, JH2 binding assay): 0.1 to 0.5 nM

Compound: CN(c1ccccc1Nc1cc(Nc2cc3c(cn2)COC3)nc2[nH]n(C)c(=O)c12)S(C)(=O)=O [Compound I-227, N-(2-((6-((1,3-dihydrofuro[3,4-c]pyridin-6-yl)amino)-2-methyl-3-oxo-2,3-dihydro-1H-pyrazolo[3,4-b]pyridin-4-yl)amino)phenyl)-N-methylmethanesulfonamide]
Kd ([1]; Table 4, JH2 binding assay): < 0.1 nM

Compound: COc1c(Cl)cccc1Nc1cc(Nc2cnc(C)c(C#N)n2)nc2[nH]n(C)c(=O)c12 [Compound I-135, 6-((4-((3-chloro-2-methoxyphenyl)amino)-2-methyl-3-oxo-2,3-dihydro-1H-pyrazolo[3,4-b]pyridin-6-yl)amino)-3-methylpyrazine-2-carbonitrile]
Kd ([1]; Table 4, JH2 binding assay): 1 to 10 nM

Results, then the compound that gave them:

Kd [1, 2]: 1 to 10 nM | inhibitory activity against TYK2 JH1 kinase function (TYK2 JH1 kinase): no detectable inhibitory activity | inhibitory activity against JAK2 JH1 kinase function (JAK2 JH1 kinase): no detectable inhibitory activity
Compound: COC(=O)c1nnc(-c2cnc(NC(=O)C3CC3)cc2Nc2cccc(-c3ncn(C)n3)c2OC)o1 [VIII-4, methyl 5-(6-(cyclopropanecarboxamido)-4-((2-methoxy-3-(1-methyl-1H-1,2,4-triazol-3-yl)phenyl)amino)pyridin-3-yl)-1,3,4-oxadiazole-2-carboxylate]

Kd [1, 2]: 10 to 100 nM | inhibitory activity against TYK2 JH1 kinase function (TYK2 JH1 kinase): no detectable inhibitory activity | inhibitory activity against JAK2 JH1 kinase function (JAK2 JH1 kinase): no detectable inhibitory activity
Compound: COc1c(Nc2cc(NC(=O)C3CC3)ncc2-c2ncc(F)s2)cccc1-c1nnn(C)n1 [VIII-2, N-(5-(5-fluorothiazol-2-yl)-4-((2-methoxy-3-(2-methyl-2H-tetrazol-5-yl)phenyl)amino)pyridin-2-yl)cyclopropanecarboxamide]

Kd [1, 2]: 0.1 to 1 nM
Compound: COc1c(Nc2cc(Nc3ccc(C)nn3)ncc2-c2nnc(CO)o2)cccc1-c1ncn(C)n1 [VIII-12, (5-(4-((2-methoxy-3-(1-methyl-1H-1,2,4-triazol-3-yl)phenyl)amino)-6-((6-methylpyridazin-3-yl)amino)pyridin-3-yl)-1,3,4-oxadiazol-2-yl)methanol]
